In data set [1] the target is T1, recombinant human transglutaminase 2 (Homo sapiens, UniProt P21980).
T1 sequence (P21980 1-687): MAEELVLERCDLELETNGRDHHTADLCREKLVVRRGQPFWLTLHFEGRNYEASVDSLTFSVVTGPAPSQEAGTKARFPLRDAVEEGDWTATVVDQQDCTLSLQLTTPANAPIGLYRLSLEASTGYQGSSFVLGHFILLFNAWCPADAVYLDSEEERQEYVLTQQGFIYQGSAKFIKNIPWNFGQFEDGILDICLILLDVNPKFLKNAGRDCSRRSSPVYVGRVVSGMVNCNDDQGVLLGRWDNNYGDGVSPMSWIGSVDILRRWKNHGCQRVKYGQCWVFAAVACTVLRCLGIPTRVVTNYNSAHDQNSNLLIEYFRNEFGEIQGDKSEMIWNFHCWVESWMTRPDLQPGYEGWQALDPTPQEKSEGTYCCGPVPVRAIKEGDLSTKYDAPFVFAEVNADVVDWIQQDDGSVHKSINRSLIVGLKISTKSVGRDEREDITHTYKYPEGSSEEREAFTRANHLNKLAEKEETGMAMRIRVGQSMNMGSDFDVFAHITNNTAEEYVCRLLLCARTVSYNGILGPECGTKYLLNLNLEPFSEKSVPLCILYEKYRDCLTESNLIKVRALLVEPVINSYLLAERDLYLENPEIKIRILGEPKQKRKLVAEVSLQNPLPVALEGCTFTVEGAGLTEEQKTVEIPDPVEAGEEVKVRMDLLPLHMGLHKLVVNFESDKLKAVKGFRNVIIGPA
In words: Transglutaminase assay: incorporation of dansylcadaverine into dimethylcasein (DCC-assay). The format is biochemical. The following applies: recombinant human TG2 10 nM, dansylcadaverine/dimethylcasein; read-out: IC50 TG2. The protocol: To illustrate the advantage of branched alkyl moieties over aromatic moieties, we refer to reference compounds Ref. 2 (ZED1227, U.S. Pat. No. 9,434,763 B2) and Ref. 3 (A8, ZED1047). Inhibition data were determined using the classical fluorescent transamidation assay (dansylcadaverine incorporation into methylated casein, DCC-assay) as described [Büchold, C.; Hils, M.; Gerlach, U.; Weber, J.; Pelzer, C.; Heil, A.; Aeschlimann, D.; Pasternack, R. Features of ZED1227: The First-In-Class Tissue Transglutaminase Inhibitor Undergoing Clinical Evaluation for the Treatment of Celiac Disease. Cells 2022, 11, 1667. https://doi.org/10.3390/cells11101667]. Casein is one of the best known high molecular weight (24 kDa) protein substrates for transglutaminases. Please note, the IC50 value of Ref. 3 (A8) published in U.S. Pat. No. 9,434,763 B2 cannot be compared to the present data, relying on a fluorogenic isopeptidase assay.
To this extent, inhibition data were determined using the classical fluorescent transamidation assay (dansylcadaverine incorporation into methylated casein, DCC-assay) as described in Büchold et al. [Büchold, C.; Hils, M.; Gerlach, U.; Weber, J.; Pelzer, C.; Heil, A.; Aeschlimann, D.; Pasternack, R. Features of ZED1227: The First-In-Class Tissue Transglutaminase Inhibitor Undergoing Clinical Evaluation for the Treatment of Celiac Disease. Cells 2022, 11, 1667. https://doi.org/10.3390/cells11101667]. Casein is one of the best known high molecular weight (24 kDa) protein substrates for transglutaminases. Inhibition data of the inventive compounds was compared with inhibition of compounds disclosed in U.S. Pat. No. 9,434,763 B2, particularly, compound A8, which is denoted herein as Reference 3. It is noteworthy that the IC50 values of compounds A8 published in U.S. Pat. No. 9,434,763 B2 and E16 from U.S. Pat. No. 11,072,634 B2 cannot be compared to the present data, relying on a fluorogenic isopeptidase assay.
For the determination of potency of inhibitors against tissue transglutaminase, the incorporation of dansylcadaverine into dimethylcasein (Zedira product T036, Lorand et al., Anal Biochem, 1971, 44:221-31) was measured using recombinant human transglutaminase 2 (Zedira Product T022).
The tissue transglutaminase is diluted in buffer (50 mM Tris-HCl, 7.5 mM CaCl2, 150 mM NaCl, pH=7.4). The final concentration of TG2 in the assay is 10 nM.
A 10 mM inhibitor stock solution is prepared in DMSO, and from this a serial 1:2-fold dilution series is prepared also in DMSO. Each of the initial dilutions is subsequently diluted 1:50-fold with buffer (50 mM Tris-HCl, 7.5 mM CaCl2, 150 mM NaCl, pH=7.4) to yield the final working dilutions containing 2% (v/v) DMSO. 15 μl of inhibitor working dilution are added per well of a 96 well microtiter plate. As control, 15 μl of a 2% (v/v) DMSO solution prepared using the buffer mentioned above are added per well.
Immediately before starting the assay, 600 μl transglutaminase working solution are added to 11.4 ml assay buffer (50 mM Tris-HCl, 10 mM CaCl2, 10 mM glutathione, 2.5% glycerol, 16.7 μM dansylcadaverine, 4 μM N,N-dimethylcasein, 200 mM NaCl, pH=8.0). 285 μl of this reaction mix are added per well containing the inhibitor.
Increase in fluorescence is measured using λex=330 nm and λemG=500 nm at […] for 30 min. A slope of the increase in fluorescence between 20 and 30 min is calculated for determination of the IC50 value (inhibitor concentration at which 50% of the initial activity is blocked).
Analysis of enzymatic activity is performed by calculation of the slope of an increase in fluorescence intensity. IC50 values are calculated by plotting the enzymatic activity (as percentage from control containing 2% DMSO instead of inhibitor) against the inhibitor concentration. IC50 is defined as the inhibitor concentration blocking 50% of initial enzyme activity.

Data set [2] in a line: Log D by shake flask method (octanol / PBS pH 7.4, HPLC). The format is physicochemical. The note with it: octanol / PBS pH 7.4, shake flask; read-out: logD. The method, then: In order to classify the inventive compounds according to their lipophilicity, Log D values (distribution coefficient) were determined by means of the well-established shake flask method, measuring the partition of a compound between an octanol and phosphate-buffered saline (PBS, pH 7.4) by HPLC.
Compounds with a moderate lipophilicity (Log D values from 0 to 3) are usually advantaged for oral absorption, being in balance between solubility and permeability. However, sophisticated formulation of a compound might improve oral bioavailability for highly lipophilic compounds.

Data set [3] is described as follows: Caco-2 permeability assay (CacoReady kit). It counts as in vitro ADME. The following applies: human. The method, then:
Permeability coefficients (Papp values) were obtained from Caco-2 barrier studies predicting oral/intestinal bioavailability of the tested compounds. The assays were performed by using CacoReady™ ready-to-use kits from ReadyCell according to the manufacturers protocol.
For orientation: Caco-2 monolayers are a common model of the intestinal barrier.

Molecules are shown by their SMILES.

`CCNC(=O)C(=O)CC[C@H](NC(=O)c1cncn1C)C(=O)Nc1cccn(CC(=O)NC23CC4CC(CC(C4)C2)C3)c1=O` [Compound I-1, (S)-N1-ethyl-N6-(1-(2-(1-adamantylamino)-2-oxoethyl)-2-oxo-1,2-dihydropyridin-3-yl)-5-(1-methyl-1H-imidazole-5-carboxamido)-2-oxohexanediamide]: in data set [1], the half-inhibitory concentration (IC50) – broadly, the point on the concentration scale where inhibition reaches its midpoint – was 600 to 3500 nM. The logD (usually lipophilicity at a set pH, counting ionised and neutral species) in data set [2] was < 1. For the same compound, the Papp (commonly the rate of passage across a membrane or cell layer, normalised by area and donor concentration) in data set [3] is < 1 ×10⁻⁶ cm/s.
The corresponding values for `CCNC(=O)C(=O)CC[C@H](NC(=O)c1c[nH]cn1)C(=O)Nc1cccn(CC(=O)NC23CC4CC(CC(C4)C2)C3)c1=O` [Compound I-2, (S)-N1-ethyl-5-(1H-imidazole-4-carboxamido)-N6-(1-(2-(1-adamantylamino)-2-oxoethyl)-2-oxo-1,2-dihydropyridin-3-yl)-2-oxohexanediamide] are 600 to 3500 nM, < 1 and < 1 ×10⁻⁶ cm/s.
Regarding `CCNC(=O)C(=O)CC[C@H](NC(=O)c1cncn1C)C(=O)Nc1cccn(CC(=O)N(C)C23CC4CC(CC(C4)C2)C3)c1=O` [Compound I-3, (S)-N1-ethyl-N6-(1-(2-(1-adamantyl(methyl)amino)-2-oxoethyl)-2-oxo-1,2-dihydropyridin-3-yl)-5-(1-methyl-1H-imidazole-5-carboxamido)-2-oxohexanediamide], the IC50 in data set [1] fell in the range of 600 to 3500 nM. Moreover, the logD in data set [2] was in the range of 1 to 3. Moreover, the Papp in data set [3] is < 1 ×10⁻⁶ cm/s.
With `CCNC(=O)C(=O)CC[C@H](NC(=O)c1cncn1C)C(=O)Nc1cccn(CC(=O)NC23CC4CC(C)(CC(C)(C4)C2)C3)c1=O` [Compound I-4, (S)-N1-ethyl-N6-(1-(2-(3,5-dimethyladamantane-1-amino)-2-oxoethyl)-2-oxo-1,2-dihydropyridin-3-yl)-5-(1-methyl-1H-imidazole-5-carboxamido)-2-oxohexanediamide], the IC50 in data set [1] is < 150 nM. Moreover, the logD in data set [2] fell in the range of 1 to 3. In addition, in data set [3], the apparent permeability (Papp) was < 1 ×10⁻⁶ cm/s.
With `CCNC(=O)C(=O)CC[C@H](NC(=O)c1cncn1C)C(=O)Nc1cccn(CC(=O)NC23CC4CC(CC(CC)(C4)C2)C3)c1=O` [Compound I-5, (S)-N1-ethyl-N6-(1-(2-(3-ethyladamantane-1-amino)-2-oxoethyl)-2-oxo-1,2-dihydropyridin-3-yl)-5-(1-methyl-1H-imidazole-5-carboxamido)-2-oxohexanediamide], in data set [1], the concentration for half-maximal inhibition (IC50) fell in the range of 150 to 600 nM. The logD in data set [2] fell in the range of 1 to 3. Besides, the Papp in data set [3] is < 1 ×10⁻⁶ cm/s.
The corresponding values for `CCNC(=O)C(=O)CC[C@H](NC(=O)c1cncn1C)C(=O)Nc1cccn(CC(=O)NC23CC4CC(C2)CC(C(F)(F)F)(C4)C3)c1=O` [Compound I-6, (S)-N1-ethyl-N6-(1-(2-(3-trifluoromethyladamantane-1-amino)-2-oxoethyl)-2-oxo-1,2-dihydropyridin-3-yl)-5-(1-methyl-1H-imidazole-5-carboxamido)-2-oxohexanediamide] are 150 to 600 nM, < 1 and < 1 ×10⁻⁶ cm/s.
As for `CCNC(=O)C(=O)CC[C@H](NC(=O)c1cncn1C)C(=O)Nc1cccn(CC(=O)NC23CC4CC(CC(O)(C4)C2)C3)c1=O` [Compound I-7, (S)-N1-ethyl-N6-(1-(2-(3-hydroxyadamantane-1-amino)-2-oxoethyl)-2-oxo-1,2-dihydropyridin-3-yl)-5-(1-methyl-1H-imidazole-5-carboxamido)-2-oxohexanediamide], the IC50 in data set [1] fell in the range of 600 to 3500 nM. Moreover, in data set [2], the logD was < 1. Also, the Papp in data set [3] is < 1 ×10⁻⁶ cm/s.
For the compound `CCNC(=O)C(=O)CC[C@H](NC(=O)c1cncn1C)C(=O)Nc1cccn(CC(=O)NC23CC4CC(CC(F)(C4)C2)C3)c1=O` [Compound I-8, (S)-N1-ethyl-N6-(1-(2-(3-fluoroadamantane-1-amino)-2-oxoethyl)-2-oxo-1,2-dihydropyridin-3-yl)-5-(1-methyl-1H-imidazole-5-carboxamido)-2-oxohexanediamide], the IC50 in data set [1] lay in the range of 150 to 600 nM. In addition, the logD in data set [2] is < 1. The Papp in data set [3] was < 1 ×10⁻⁶ cm/s.
With `CCNC(=O)C(=O)CC[C@H](NC(=O)c1cncn1C)C(=O)Nc1cccn(CC(=O)NC23CC4CC(CC(Cl)(C4)C2)C3)c1=O` [Compound I-9, (S)-N1-ethyl-N6-(1-(2-(3-chloroadamantane-1-amino)-2-oxoethyl)-2-oxo-1,2-dihydropyridin-3-yl)-5-(1-methyl-1H-imidazole-5-carboxamido)-2-oxohexanediamide], in data set [1], the IC50 lay within 150 to 600 nM. The logD in data set [2] was < 1. In addition, the Papp in data set [3] was < 1 ×10⁻⁶ cm/s.
`CCNC(=O)C(=O)CC[C@H](NC(=O)c1cncn1C)C(=O)Nc1cccn(CC(=O)NC23CC4CC(CC(Br)(C4)C2)C3)c1=O` [Compound I-10, (S)-N1-ethyl-N6-(1-(2-(3-bromoadamantane-1-amino)-2-oxoethyl)-2-oxo-1,2-dihydropyridin-3-yl)-5-(1-methyl-1H-imidazole-5-carboxamido)-2-oxohexanediamide]: the IC50 in data set [1] lay within 150 to 600 nM. Moreover, in data set [2], the logD was < 1. In addition, the Papp in data set [3] was < 1 ×10⁻⁶ cm/s.
Turning to `CCNC(=O)C(=O)CC[C@H](NC(=O)c1cncn1C)C(=O)Nc1cccn(CC(=O)NC23CC4CC(C2)CC(C(=O)OC)(C4)C3)c1=O` [Compound I-11, (S)-N1-ethyl-N6-(1-(2-(3-methyladamantane-3-carboxylate-1-amino)-2-oxoethyl)-2-oxo-1,2-dihydropyridin-3-yl)-5-(1-methyl-1H-imidazole-5-carboxamido)-2-oxohexanediamide], the IC50 in data set [1] was in the range of 150 to 600 nM. Also, the logD in data set [2] is < 1. Moreover, the Papp in data set [3] was < 1 ×10⁻⁶ cm/s.

The values above are taken from US20240270715A1, “INHIBITORS OF TRANSGLUTAMINASES” (ZEDIRA GMBH, priority 2021, published 2024).
